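Five concentrations, 48 hours, 96-well plates. The concentration for full growth arrest is given as TGI.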
Experiments:
Assay in all cases: DTP human tumour cell line panel, 48 h
A498 renal = tested on: A498 renal
A549 NSCLC = tested on: A549 NSCLC
HCC-2998 colon = tested on: HCC-2998 colon
HCT-15 colon = tested on: HCT-15 colon
M14 melanoma = tested on: M14 melanoma
MOLT-4 leukemia = tested on: MOLT-4 leukemia
OVCAR-4 ovarian = tested on: OVCAR-4 ovarian
SK-MEL-5 melanoma = tested on: SK-MEL-5 melanoma
MDA-N = tested on: MDA-N

Compound | TGI (A498 renal) [µM] | TGI (A549 NSCLC) [µM] | TGI (HCC-2998 colon) [µM] | TGI (HCT-15 colon) [µM] | TGI (M14 melanoma) [µM] | TGI (MOLT-4 leukemia) [µM] | TGI (OVCAR-4 ovarian) [µM] | TGI (SK-MEL-5 melanoma) [µM] | TGI (MDA-N) [µM]
O=C1Nc2ccccc2/C1=C\c1c(Cl)n(-c2ccccc2)c2ccccc12 | 22.2 | 25 | 9.83 | 18.1 | 10.1 | > 100 | 21.6 | 17.5 | –
COc1nc(Cl)nc(N[C@H](C)c2c3ccccc3cc3ccccc23)n1 | – | 96.2 | – | 27 | – | 40.1 | 13.7 | 19.5 | 8.99
CC1OC(OC2C(O[C@H]3CC[C@@]4(C)C(=CC[C@H]5[C@@H]6C[C@@H]7O[C@]8(CC[C@@H](C)CO8)[C@@H](C)[C@@H]7[C@@]6(C)CC[C@@H]54)C3)OC(CO)C(O)C2OC2OC(CO)C(O)C(O)C2O)C(O)C(O)C1O (stereo partly drawn) | 3.15 | 3.35 | 3.34 | 4.03 | – | > 23.3 | 3.31 | 4.36 | 3.17
O=S(=O)(Nc1nc2ccccc2nc1N1CCCCCC1)c1ccccc1 | – | > 100 | 31.9 | 45 | 49.9 | 44.2 | 36.4 | 29.5 | > 100
Cc1nc(NC(C)(CO)CO)nc(N/N=C/c2ccc(Cl)cc2)c1C(=O)Nc1ccc(Cl)cc1 | – | > 100 | > 100 | > 100 | > 100 | > 100 | > 100 | – | > 100
C=C(C)C1CC(=O)C(C)=C(O)C1 (stereo not drawn) | – | > 100 | > 100 | > 100 | > 100 | > 100 | > 100 | > 100 | > 100
CN(CCCCCl)P(=O)(OCc1ccc([N+](=O)[O-])o1)OCC1OC(n2ccc(N)nc2=O)C(O)C1O (stereo not drawn) | – | 2.61 | 12.6 | > 100 | > 100 | 11 | 29.1 | 1.15 | 40.3
N#Cc1c(-c2ccc([N+](=O)[O-])cc2)c(C#N)c(=O)n(NS(=O)(=O)c2ccccc2)c1S | > 100 | > 100 | > 100 | > 100 | > 100 | 46.5 | > 100 | 30.4 | –
CC1=C(C)C(=O)C(C2=CC(=O)c3ccccc3C2=O)=C(C2=CC(=O)c3ccccc3C2=O)C1=O | 50.8 | > 100 | 19.8 | > 100 | > 40.8 | > 36.2 | 42.8 | – | –

Reference: PubChem BioAssay (NCI)
